Source: patent US9096532B2, “Pyrazole inhibitors of COX-2 and sEH” (The Regents of the University of California, priority 2010, dated 2015)

Legend:
[1] = test system: mouse aortic ring vessel sprouting; assay: Mouse aortic ring assay; format: cell-based; conditions: FIG. 13
Procedure: Mouse aorta ring assay was carried out using a slightly modified method described by Bellacen and Lewis (J Vis Exp, e1564). The 48-well plates were coated with 50 μL per well growth-factor reduced Matrigel at 37° C. for 30 min. The aorta of C57BL/6 mice was harvested, washed with cold serum-free F-12K medium 5-6 times, and cut to ˜1 mm length pieces. The aorta ring was put in the center area of Matrigel-coated 48-well plates, then another 100 μL Matrigel was added into each well and incubated at 37° C. for another 30 min. Complete endothelial EGM-2 culture medium (500 μL per well) with or without test compounds was added into each well, incubated in 37° C. incubators for 6-12 days, microscope image was recorded and analyzed by NIH Image J software.

[2] = test system: cancer cells (H-1, PC-3, A375, Met-1); assay: Cancer cell proliferation assay (MTT); format: cell-based; conditions: times higher than in endothelial cells, FIG. 14
Procedure: Cells (HUVEC, H-1, PC-3, A375, Met-1) were seeded into 96-well plates at 1.0-1.5×10^3 cells per well in 100 μL complete medium. After 24 h, the medium was replaced with fresh complete medium containing test compounds and the cells were incubated for another 72 hours. Cell viability was assessed by MTT assay (Sigma-Aldrich).

HepG2 cells = assay: HepG2 cell viability analysis (MTT); format: cell-based
Procedure: Cells were plated at 10,000 cell per well in 96-well plates and allowed to attach overnight under the growth conditions described above. […] These compounds were dissolved in 100% DMSO and diluted with EMEM to the desired concentration of 0.1 μM, 1.0 μM, 10 μM, 25 μM, and 50 μM, with a final DMSO concentration of 0.1% for all cell-based in vitro studies. All studies included DMSO as a solvent control. Cell viability was determined using the MTT Cell Viability Assay Kit from ATCC according to manufacturer's instructions. The 96-well plates were measure at 570 nm using SpectroMax 190 plate reader (Molecular Devices, Sunnyvale, Calif.). […] Each concentration was performed in triplicate per 96-well plate and EC50 data are presented as the mean±standard deviation from at least 3 separate experiments performed on separate days.

Met-1 breast cancer = assay: In vivo Met-1 tumor growth; conditions: FVB mice, 0.1 mg/kg/day by mini-pump, FIG. 16
Description: Cells derived from highly metastatic breast cancer Met-1 will be transplanted into the fat pads of FVB female mice. […] Over this period, animals will be checked 3 times per week with ultrasound to mark changes in tumor growth and size. Ultrasound contrast agent microbubbles will also be administered during each ultrasound session by IV injection to track changes in tumor vasculature (Invest Radiol 46, 215-224).

[3] = Pharmacokinetics in mice by oral cassette dosing; format: in vivo; conditions: oral cassette dosing at 5 mg/kg, blood
Procedure: All the animal experiments were performed according to protocols approved by the Animal Use and Care Committee of University of California, Davis. […] Each cassette was orally administered to 4 mice at a dose of 5 mg/kg in 120-150 μl of vehicle depending on animal weight. […] The instrument was equipped with a linear ion trap and a Turbo V ion source and was operated in negative ion MRM mode. […] This was maintained for 3 min, then the gradient was returned to 30% solvent B in 2 min. The flow rate was 0.4 mL/min. The injection volume was 10 μL and the samples were kept at 4° C. in the auto sampler.

[4] = test system: VEGF-induced angiogenesis; assay: In vivo angiogenesis assay (Matrigel plug); conditions: C57BL/6 mice, n=6 per group, FIG. 15
Procedure: Male C57BL/6 mice were purchased from Charles River Lab. After acclimation for 1 wk in a standard animal facility, the animals were lightly anesthesized using 1-4% isoflurane in oxygen (2 L/min) and placed on a heated stage to maintain body temperature at 37° C. Growth-factor reduced Matrigel (0.5 mL, BD Biosciences, San Jose, Calif.) mixed with 100 ng mouse VEGF 164 (R&D Systems, Minneapolis, Minn.), 20 U heparin (APP Pharmaceuticals, Schaumburg, Ill.), with or without test compounds were subcutaneously injected into the mice at the abdominal area. Each mouse was injected with two gels (with/without test compounds) symmetrically in the abdomen. After 4-7 days, the animals were euthanized and dissected to recover the implanted Matrigel plugs. Hemoglobin contents inside the Matrigel implants were analyzed by Drabkin's reagent (Sigma-Aldrich, St. Louis, Mont.).

[5] = test system: MMP activity in PC-3 cells; assay: Matrix metalloproteinase (MMP) assay by zymography, PC-3 cells; format: cell-based; conditions: FIG. 17 left
Procedure: (§1) MMP activity in PC-3 and HUVEC cells were carried out by zymography (J Vis Exp, e2445). […] After that, the gels were incubated at renaturing buffer for 30 min, followed with incubation at zymography developing buffer for 30 min at room temperature, and replaced with fresh developing buffer and incubated at 37° C. overnight. The gels were stained by Coomassie blue, and images were recorded and analyzed by NIH Image J software.

[6] = Pharmacokinetics in rats by oral administration
5-LOX = target: T1, 5-LOX (Homo sapiens, UniProt P09917); assay: Potency against 5-LOX; format: biochemical; conditions: compared with celecoxib
T1 sequence (P09917 1-674): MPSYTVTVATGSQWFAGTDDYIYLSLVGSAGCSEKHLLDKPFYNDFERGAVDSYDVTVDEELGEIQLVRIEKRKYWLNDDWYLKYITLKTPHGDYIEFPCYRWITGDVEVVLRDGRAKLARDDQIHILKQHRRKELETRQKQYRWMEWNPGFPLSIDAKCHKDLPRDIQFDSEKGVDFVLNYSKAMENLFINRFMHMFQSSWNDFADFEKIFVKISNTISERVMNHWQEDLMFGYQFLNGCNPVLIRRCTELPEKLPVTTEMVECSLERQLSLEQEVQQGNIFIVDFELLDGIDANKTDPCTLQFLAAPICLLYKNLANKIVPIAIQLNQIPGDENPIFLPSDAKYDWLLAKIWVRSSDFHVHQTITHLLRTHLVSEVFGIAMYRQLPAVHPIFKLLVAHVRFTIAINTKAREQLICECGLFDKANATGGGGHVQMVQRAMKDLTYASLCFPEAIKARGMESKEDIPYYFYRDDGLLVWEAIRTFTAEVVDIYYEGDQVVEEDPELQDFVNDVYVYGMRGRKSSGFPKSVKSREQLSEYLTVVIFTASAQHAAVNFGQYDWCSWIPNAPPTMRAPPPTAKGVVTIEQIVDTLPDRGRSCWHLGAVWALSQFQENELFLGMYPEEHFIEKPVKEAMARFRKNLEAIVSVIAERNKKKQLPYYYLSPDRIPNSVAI

[7] = test system: MMP activity in HUVEC cells; assay: Matrix metalloproteinase (MMP) assay by zymography, HUVEC cells; format: cell-based, human; conditions: FIG. 17 right
Procedure: as §1

[8] = 21i in comparison with 21j, rats oral 1 mg/kg
[9] = rats, oral administration at 1 mg/kg (n = 4), blood

For `NS(=O)(=O)c1ccc(-n2nc(CCCNC(=O)Nc3ccc(C(F)(F)F)cc3)cc2-c2ccccc2)cc1` [Compound 21i, 4-(5-Phenyl-3-{3-[3-(4-trifluoromethyl-phenyl)-ureido]-propyl}-pyrazol-1-yl)-benzenesulfonamide], the “Vessel sprouting in mouse aortic ring assay, in words” value [1] was “inhibited vessel sprouting in mouse aortic ring assay in a dose-dependent manner”, the “IC50 in cancer cells relative to endothelial cells” value [2] was 5-10 times and the EC50 (HepG2 cells; Homo sapiens, HepG2, MTT after 24 hours of incubation) was 4.5 ± 0.5 µM. For the same compound, the “Effect on HepG2 cell viability (killing cancer cells), in words” value (HepG2 cells; dose dependence, FIG. 9) was “more efficient than Celecoxib in combination or not with t-TUCB in killing the cancer cells”, the “Primary tumor growth of Met-1 breast cancer, in words” value (Met-1 breast cancer) was “inhibits primary tumor growth” and the AUC [3] was 0.98 µM·h. It also gave a Cmax [3] of 260 nM, a Tmax [3] of 0.8 h and a t1/2 [3] of 2.6 h. The “VEGF-induced angiogenesis, hemoglobin content inside the Matrigel, in words” value [4] was “inhibits VEGF-induced angiogenesis”, the “MMP activity, in words” value [5] was “no effect on MMP activity” and the “Higher AUC in rats” value [6, 8] was 2 fold. The “Higher Cmax in rats” value [6, 8] was 2 fold, the AUC [6, 9] was 2.764 ± 0.804 µM·h and the Cmax [6, 9] was 415 ± 139 nM. For the same compound, the Tmax [6, 9] was 1.5 ± 0.6 h, the t1/2 [6, 9] was 12.9 ± 3.8 h and the “Potency against 5-LOX, in words” value (5-LOX) was “comparable with celecoxib”. The “MMP activity, in words” value [7] was “no effect on MMP activity”.
